Source: US20150366836A1, “METHOD AND PHARMACEUTICAL COMPOSITION FOR TREATING COLORECTAL CANCER” (National Dong Hua University, priority 2014, published 2015)

Assays:
[1] = test system: Caco2 cells; assay: MTT assay cell viability, Caco2 cells; type: cell-based
Protocol: (§1) Two cell lines were used in this study, Caco2 cells and HT-29 cells. Both of them are colorectal cancer cells. Caco2 cells and HT-29 cells were maintained in DMEM (or RPMI) supplemented with 20% or 10% fetal bovine serum (FBS; GIBCO), pH 7.4 at 37° C. with continuous circulation of 5% CO2 incubator. The medium was changed every 2 days and the cells were trypsinized using trypsin/EDTA when reaching 80%-90% confluence.
(§2) In this example, the effects of HCD, PG, and 5-FU on the viability of Caco2 cells and HT-29 cells were examined. The MTT assay was employed for this purpose. The MTT (3-(4-,5-dimethylthiazol-2-yl)-2,5-diphenyltetrazolium bromide) assay is a common colorimetric method in the field for cell viability analysis. MTT (yellow tetrazolium salt) is reduced to a purple formazan by living cells and detection to the purple formazan can be calculated as the cell viability.
(§3) Briefly, cells (Caco2 or HT-29) were seeded in 96-well plate (7×10^3 cell per well) and incubated overnight (37° C., 5% CO2).
(§4) On the other hand, in the pretreatment analysis, cells (Caco2 or HT-29) were seeded in 96-well plate (7×10^3 cell per well) and incubated overnight (37° C., 5% CO2). In according to the treatments listed in the Table 1, Cells were pre-treated by HCD or PG for 6, 12, 24, 36, or 48 hr and then were treated by 5-FU for additional 24 hr.

[2] = test system: HT-29 cells; assay: Cell cycle analysis by flow cytometer (PI staining), HT-29 cells; type: cell-based
Protocol: (§5) The results of Example 2 in cell viability hinted the effects of HCD, PG, and 5-FU on arresting cell cycle. In this example, the phase of cell cycle of Caco2 and HT-29 cells after the treatment listed in Table 1 was determined by flow cytometer. Briefly, 7×10^4 cells per well were inoculated in 12-wells plate and incubated overnight at 37° C., 5% CO2. Then, cells were treated according to the treatment listed in Table 1 by indicated time period. After treatment, cells were harvested by trypsin and fixed with 70% ethanol at −20° C. for at least 3 hr. The cells were washed in cold PBS twice and then incubated with 1 mL (v/v) staining solution (20 μg/mL propidium iodide (PI), 0.1% Triton X-100, 0.2 mg/mL Rnase) at 37° C. for 30 minutes. Lastly, cells were analyzed by flow cytometer (Cytomics™ FC500, Backman, Fullerton, Calif., USA). Data from 10,000 cells were collected for each experimental group.

[3] = test system: Caco2 cells; assay: Cell cycle analysis by flow cytometer (PI staining), Caco2 cells; type: cell-based
Protocol: as §5

[4] = test system: HT-29 cells; assay: MTT assay cell viability, HT-29 cells; type: cell-based
Protocol: as §1, §2, §3, §4

[5] = test system: mouse bearing inflammatory bowel disease (IBD), AOM/DSS induced; assay: Mouse model bearing IBD (AOM/DSS induced), body weight and H&E staining of intestine; type: in vivo, C57/BL6 mice
Protocol: The animal experiments were approved by the National Dong-Hwa University Animal Ethics Committee and the experimental protocols were used according to the “Guide for the Care and Use of Laboratory Animals” of National Dong-Hwa University. On day 0, C57/BL6 mice (6-8 weeks old) were weighted and injected (intraperitoneal; i.p.) with 10 mg/kg body weight of azoxymethane (AOM) and then fed with 2% Dextran sodium sulfate solution (DSS solution) via water every day for 7 days. On day 8, the 2% DSS solution was changed to normal water for another 7 days. The cycle of DSS solution and water was repeated and the induction procedure was completed on day 35.
After the establishment of IBD in the experimental mice (on day 35), the mice were injected (i.p.) with 5-FU (15 mg/kg body weight) or HCD (0.64, 1.6, or 6.4 mg/kg body weight) once every three days for additional 30 days. Then, the mice were sacrificed. The colon, spleen, liver, and kidney thereof were immediately removed, observed, and further examined by H&E staining.

IC50 ([1]; Caco2 cells, 48 hr treatment): 5 µM
G2/M phase after pre-treatment then 5-FU (in words) ([3]; Caco2, 12 and 24 hr pretreatment of 1 or 2 μM, then 5-FU): decreased
IC50 ([4]; HT-29 cells, 36 hr treatment): 5 µM
SMILES: CC1=CCCC2C1(C)CCC(C)C2(C)CCC1=CC(=O)OC1O (stereo not drawn) [HCD, 16-hydroxy-cleroda-3,13-dine-15,16-olide]
effect of pre-treating on efficacy of 5-FU in the subsequent treatment (MTT) ([1]; Caco2, pre-treatment 6-48 hr, then 5-FU 2 μM 24 hr): significantly enhanced the efficacy of 5-FU
cell cycle arrest at sub-G1 phase vs control (in words) ([2]; HT-29): increased cell cycle arrest at sub-G1 phase
G0/G1 (%) ([2]; HT-29, 0.5 μM, 24 hr): 82.9 ± 0.849 %
G2/M (%) ([2]; HT-29, 0.5 μM, 24 hr): 8.2 ± 0 %
S (%) ([2]; HT-29, 0.5 μM, 24 hr): 3.3 ± 0.424 %
Sub G1 (%) ([2]; HT-29, 0.5 μM, 24 hr): 4.35 ± 0.495%
G0/G1 (%) ([2]; HT-29, 0.5 μM, 36 hr): 59.25 ± 0.54%
G2/M (%) ([2]; HT-29, 0.5 μM, 36 hr): 14.25 ± 1.01 %
S (%) ([2]; HT-29, 0.5 μM, 36 hr): 15.85 ± 1.68%
Sub G1 (%) ([2]; HT-29, 0.5 μM, 36 hr): 7.7 ± 0.81%
G0/G1 (%) ([2]; HT-29, 2 μM, 24 hr): 33.9 ± 1.414 %
G2/M (%) ([2]; HT-29, 2 μM, 24 hr): 22 ± 1.414%
S (%) ([2]; HT-29, 2 μM, 24 hr): 17.95 ± 0.212%
Sub G1 (%) ([2]; HT-29, 2 μM, 24 hr): 20.7 ± 0.707 %
G0/G1 (%) ([2]; HT-29, 2 μM, 36 hr): 35.95 ± 1.34 %
G2/M (%) ([2]; HT-29, 2 μM, 36 hr): 9.05 ± 1.485 %
S (%) ([2]; HT-29, 2 μM, 36 hr): 7.8 ± 0.14 %
Sub G1 (%) ([2]; HT-29, 2 μM, 36 hr): 43.95 ± 3.89 %
G0/G1 (%) ([2]; HT-29, 5 μM, 24 hr): 27.5 ± 4.808%
G2/M (%) ([2]; HT-29, 5 μM, 24 hr): 23.5 ± 2.97%
S (%) ([2]; HT-29, 5 μM, 24 hr): 15.1 ± 2.546%
Sub G1 (%) ([2]; HT-29, 5 μM, 24 hr): 22.95 ± 7.99 %
G0/G1 (%) ([2]; HT-29, 5 μM, 36 hr): 16.4 ± 4.95 %
G2/M (%) ([2]; HT-29, 5 μM, 36 hr): 11.15 ± 1.20 %
S (%) ([2]; HT-29, 5 μM, 36 hr): 7.5 ± 1.13 %
Sub G1 (%) ([2]; HT-29, 5 μM, 36 hr): 62 ± 6.93 %
cell cycle phases after pre-treatment then 5-FU (in words) ([2]; HT-29, pre-treatment, then 5-FU): increase of sub G1 phase and decrease of G2/M phase
cell cycle arrest at sub-G1 phase vs control (in words) ([3]; Caco2): increased cell cycle arrest at sub-G1 phase
G0/G1 (%) ([3]; Caco2, 0.5 μM, 36 hr): 43.8 ± 3.81%
G2/M (%) ([3]; Caco2, 0.5 μM, 36 hr): 20.37 ± 4.24%
S (%) ([3]; Caco2, 0.5 μM, 36 hr): 17.3 ± 0.44%
Sub G1 (%) ([3]; Caco2, 0.5 μM, 36 hr): 14.4 ± 1.73%
G0/G1 (%) ([3]; Caco2, 0.5 μM, 48 hr): 44.13 ± 3.26%
G2/M (%) ([3]; Caco2, 0.5 μM, 48 hr): 21.2 ± 2.46%
S (%) ([3]; Caco2, 0.5 μM, 48 hr): 15.93 ± 0.9%
Sub G1 (%) ([3]; Caco2, 0.5 μM, 48 hr): 14.47 ± 5.05%
G0/G1 (%) ([3]; Caco2, 2 μM, 36 hr): 29.73 ± 4.22 %
G2/M (%) ([3]; Caco2, 2 μM, 36 hr): 23.73 ± 3.91%
S (%) ([3]; Caco2, 2 μM, 36 hr): 13.03 ± 0.5%
Sub G1 (%) ([3]; Caco2, 2 μM, 36 hr): 28.8 ± 4.2 %
G0/G1 (%) ([3]; Caco2, 2 μM, 48 hr): 25.73 ± 4.63%
G2/M (%) ([3]; Caco2, 2 μM, 48 hr): 22.03 ± 2.11%
S (%) ([3]; Caco2, 2 μM, 48 hr): 11.63 ± 1.08%
Sub G1 (%) ([3]; Caco2, 2 μM, 48 hr): 36.17 ± 7.48 %
G0/G1 (%) ([3]; Caco2, 5 μM, 36 hr): 19.4 ± 1.82 %
G2/M (%) ([3]; Caco2, 5 μM, 36 hr): 14.77 ± 0.8%
S (%) ([3]; Caco2, 5 μM, 36 hr): 9.9 ± 0.98 %
Sub G1 (%) ([3]; Caco2, 5 μM, 36 hr): 51.77 ± 1.65 %
G0/G1 (%) ([3]; Caco2, 5 μM, 48 hr): 15.67 ± 6.25 %
G2/M (%) ([3]; Caco2, 5 μM, 48 hr): 12.9 ± 0.87%
S (%) ([3]; Caco2, 5 μM, 48 hr): 9.87 ± 0.55%
Sub G1 (%) ([3]; Caco2, 5 μM, 48 hr): 54.2 ± 0.62 %
effect of pre-treating on efficacy of 5-FU in the subsequent treatment (MTT) ([4]; HT-29, pre-treatment 6-48 hr, then 5-FU 2 μM 24 hr): significantly enhanced the efficacy of 5-FU
intestine villus arrangement (H&E staining) ([5]; 0.64 mg/kg body weight i.p.): irregular arrangement of villus
lymph node (H&E staining) ([5]; 0.64 mg/kg body weight i.p.): not infiltrated into muscle mucosa layer
body weight ([5]; 0.64 mg/kg body weight i.p. once every three days, 30 days): initially reduced
intestine villus arrangement (H&E staining) ([5]; 1.6 mg/kg body weight i.p.): arranged in neat rows nearly as seen in the control mice
lymph node (H&E staining) ([5]; 1.6 mg/kg body weight i.p.): not infiltrated into muscle mucosa layer
intestine villus arrangement (H&E staining) ([5]; 6.4 mg/kg body weight i.p.): arranged in neat rows nearly as seen in the control mice
lymph node (H&E staining) ([5]; 6.4 mg/kg body weight i.p.): not infiltrated into muscle mucosa layer
